Measured values taken from US20240360178A1, “MACROCYCLIC IMMUNOMODULATORS” (Bristol-Myers Squibb Company, priority 2021, published 2024).
pIC50: −log10 of the molar value. Positions of bridges follow the written chain, without caps; N, C: chain ends. Non-standard residues stand in square brackets, D forms with d. Residues, ends and D or L forms follow the SMILES beside them. ξ: configuration not given here. Phe(4-COOH) = N[C@@H](Cc1ccc(C(=O)O)cc1)C(=O)O; Phe(4-CH2NH2) = NCc1ccc(C[C@H](N)C(=O)O)cc1; Bip = N[C@@H](Cc1ccc(-c2ccccc2)cc1)C(=O)O; Phe(3-Me) = Cc1cccc(C[C@H](N)C(=O)O)c1; Phe(2-Me) = Cc1ccccc1C[C@H](N)C(=O)O; Ala(cPr) = N[C@@H](CC1CC1)C(=O)O; NMeF = CN[C@@H](Cc1ccccc1)C(=O)O; 4Pal = N[C@@H](Cc1ccncc1)C(=O)O; Cha = N[C@@H](CC1CCCCC1)C(=O)O; Tle = CC(C)(C)[C@H](N)C(=O)O; hSer = N[C@@H](CCO)C(=O)O; NMeA = CN[C@@H](C)C(=O)O; Nle = CCCC[C@H](N)C(=O)O; Orn = NCCC[C@H](N)C(=O)O; Dab = NCC[C@H](N)C(=O)O; Dap = NC[C@H](N)C(=O)O; ξV = CC(C)C(N)C(=O)O; Sar = CNCC(=O)O

target: T1, human PD-1 (Jurkat-PD-1 cells) / PE-labeled human PD-L1-Ig (Homo sapiens, UniProt Q15116); assay: Jurkat-PD-1 Cell Binding High-Content Screening Assay (CBA); Jurkat hPD1-PDL1 assay; details: Jurkat cell line over-expressing human PD-1; PE-labeled PD-L1-Ig 20 nM final; compound incubated 2 hours at 37° C.; read-out: Jurkat HPD1-PDL1 IC50
T1 construct: expressed in transfected cells; host or cells: Jurkat cell line over-expressing human PD-1
Procedure, shortened: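 Cell binding by imaging: Jurkat line stably over-expressing human PD-1, compound pre-exposure 2 h at 37° C, PE-conjugated PD-L1-Ig 20 nM final, medium DMEM containing 10% FCS.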

T1 sequence (Q15116 25-288): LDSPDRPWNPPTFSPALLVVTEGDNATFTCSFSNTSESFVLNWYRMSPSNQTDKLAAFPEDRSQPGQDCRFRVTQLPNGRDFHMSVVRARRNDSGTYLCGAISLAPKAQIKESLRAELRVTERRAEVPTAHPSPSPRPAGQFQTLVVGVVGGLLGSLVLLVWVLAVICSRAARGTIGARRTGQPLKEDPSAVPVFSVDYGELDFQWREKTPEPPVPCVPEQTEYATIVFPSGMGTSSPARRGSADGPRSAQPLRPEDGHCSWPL

Row | SMILES | pIC50
1 | CC(C)C[C@@H]1NC(=O)[C@H](CCCNC(=N)N)NC(=O)[C@H](Cc2ccccc2)N(C)C(=O)[C@H](C)N(C)C(=O)[C@H](CCCNC(=N)N)NC(=O)[C@H](Cc2ccc(-c3ccccc3)cc2)NC(=O)[C@H](C(C)C)NC(=O)[C@H](Cc2c[nH]c3ccccc23)NC(=O)[C@H](CC(=O)O)NC(=O)[C@H](Cc2ccc(O)cc2)NC(=O)[C@H](Cc2ccccc2)NC(=O)CSC[C@@H](C(=O)NCC(N)=O)NC(=O)[C@H](CO)NC(=O)[C@H](C(C)(C)C)NC1=O [Example 1143] ({CH2CO}-FYDWV[Bip]R[NMeA][NMeF]RL[Tle]SCG-NH2; thioether N-14) | 6.21
2 | CC(C)C[C@@H]1NC(=O)[C@H](Cc2c[nH]c3ccccc23)NC(=O)[C@H](CC(=O)O)NC(=O)[C@H](Cc2ccc(O)cc2)NC(=O)[C@H](Cc2ccc(CN)cc2)NC(=O)CSC[C@@H](C(=O)NCC(N)=O)NC(=O)[C@H](CO)NC(=O)[C@H](C(C)C)NC(=O)[C@H](CC(C)C)NC(=O)[C@H](CC(N)=O)NC(=O)CN(C)C(=O)[C@H](C)N(C)C(=O)[C@H](C(C)C)NC(=O)[C@H](Cc2ccc(-c3ccccc3)cc2)NC1=O [Example 1160] ({CH2CO}-[Phe(4-CH2NH2)]YDWL[Bip]V[NMeA][Sar]NLVSCG-NH2; thioether N-14) | 6.06
3 | CC(C)C[C@@H]1NC(=O)[C@H](CCCNC(=N)N)NC(=O)[C@H](Cc2ccccc2)N(C)C(=O)[C@H](C)N(C)C(=O)[C@H](CCCNC(=N)N)NC(=O)[C@H](Cc2ccc(-c3ccccc3)cc2)NC(=O)[C@H](C(C)C)NC(=O)[C@H](Cc2c[nH]c3ccccc23)NC(=O)[C@H](CC(=O)O)NC(=O)[C@H](Cc2ccc(O)cc2)NC(=O)[C@H](Cc2ccccc2)NC(=O)CSC[C@@H](C(=O)NCC(N)=O)NC(=O)[C@H]([C@@H](C)O)NC(=O)[C@H](C(C)C)NC1=O [Example 1129] ({CH2CO}-FYDWV[Bip]R[NMeA][NMeF]RLVTCG-NH2; thioether N-14) | 6.30
4 | CC(C)C[C@@H]1NC(=O)[C@H](Cc2c[nH]c3ccccc23)NC(=O)[C@H](CC(=O)O)NC(=O)[C@H](Cc2ccc(O)cc2)NC(=O)[C@H](Cc2ccccc2)NC(=O)CSC[C@@H](C(=O)NCC(N)=O)NC(=O)[C@H](CO)NC(=O)[C@H](C(C)C)NC(=O)[C@H](CC(C)C)NC(=O)[C@H](CC(N)=O)NC(=O)[C@H]2CCCN2C(=O)[C@H](C)N(C)C(=O)[C@H](C(C)C)NC(=O)[C@H](Cc2ccc(-c3ccccc3)cc2)NC1=O [Example 1035] ({CH2CO}-FYDWL[Bip]V[NMeA][dP]NLVSCG-NH2; thioether N-14) | 7.22
5 | CC(C)C[C@@H]1NC(=O)[C@H](Cc2c[nH]c3ccccc23)NC(=O)[C@H](CC(=O)O)NC(=O)[C@H](Cc2ccc(C(=O)O)cc2)NC(=O)[C@H](CC(N)=O)NC(=O)CSC[C@@H](C(=O)N[C@@H](C)C(N)=O)NC(=O)[C@H](CO)NC(=O)[C@H](C(C)C)NC(=O)[C@H](CC(C)C)NC(=O)[C@H](CC(N)=O)NC(=O)[C@H]2CCCN2C(=O)[C@H](C)N(C)C(=O)[C@H](C(C)C)NC(=O)[C@H](Cc2ccc(-c3ccccc3)cc2)NC1=O [Example 1059] ({CH2CO}-N[Phe(4-COOH)]DWL[Bip]V[NMeA][dP]NLVSCA-NH2; thioether N-14) | 6.85
6 | CC(C)C[C@@H]1NC(=O)[C@H](Cc2c[nH]c3ccccc23)NC(=O)[C@H](CC(=O)O)NC(=O)[C@H](Cc2ccc(O)cc2)NC(=O)[C@H](Cc2ccccc2)NC(=O)CSC[C@@H](C(=O)N[C@@H](C)C(N)=O)NC(=O)[C@H](CO)NC(=O)[C@H](C(C)C)NC(=O)[C@H](CC(C)C)NC(=O)[C@H](CCCNC(=N)N)NC(=O)[C@H](Cc2ccccc2)N(C)C(=O)[C@H](C)N(C)C(=O)[C@H](CCCNC(=N)N)NC(=O)[C@H](Cc2ccc(-c3ccccc3)cc2)NC1=O [Example 1078] ({CH2CO}-FYDWL[Bip]R[NMeA][NMeF]RLVSCA-NH2; thioether N-14) | 6.66
7 | CC(C)C[C@@H]1NC(=O)[C@H](CC(N)=O)NC(=O)CN(C)C(=O)[C@H](C)N(C)C(=O)[C@H](C(C)C)NC(=O)[C@H](Cc2ccc(-c3ccccc3)cc2)NC(=O)[C@H](CC2CC2)NC(=O)[C@H](Cc2c[nH]c3ccccc23)NC(=O)[C@H](CC(=O)O)NC(=O)[C@H](Cc2ccc(O)cc2)NC(=O)[C@H](Cc2ccccc2)NC(=O)CSC[C@@H](C(=O)N[C@@H](C)C(N)=O)NC(=O)[C@H](CO)NC(=O)[C@H](C(C)C)NC1=O [Example 1155] ({CH2CO}-FYDW[Ala(cPr)][Bip]V[NMeA][Sar]NLVSCA-NH2; thioether N-14) | 6.09
8 | CCCC[C@@H]1NC(=O)[C@H](CC(N)=O)NC(=O)CN(C)C(=O)[C@H](C)N(C)C(=O)[C@H](C(C)C)NC(=O)[C@H](Cc2ccc(-c3ccccc3)cc2)NC(=O)[C@H](CC(C)C)NC(=O)[C@H](Cc2c[nH]c3ccccc23)NC(=O)[C@H](CC(=O)O)NC(=O)[C@H](Cc2ccc(O)cc2)NC(=O)[C@H](Cc2ccccc2)NC(=O)CSC[C@@H](C(=O)NCC(N)=O)NC(=O)[C@H](CO)NC(=O)[C@H](C(C)C)NC1=O [Example 1073] ({CH2CO}-FYDWL[Bip]V[NMeA][Sar]N[Nle]VSCG-NH2; thioether N-14) | 6.72
9 | Cc1ccccc1C[C@@H]1NC(=O)[C@H](CC(=O)O)NC(=O)[C@H](Cc2ccc(O)cc2)NC(=O)[C@H](Cc2ccccc2)NC(=O)CSC[C@@H](C(=O)N[C@@H](C)C(N)=O)NC(=O)[C@H](CO)NC(=O)[C@H](C(C)C)NC(=O)[C@H](CC(C)C)NC(=O)[C@H](CC(N)=O)NC(=O)CN(C)C(=O)[C@H](C)N(C)C(=O)[C@H](C(C)C)NC(=O)[C@H](Cc2ccc(-c3ccccc3)cc2)NC(=O)[C@H](CC(C)C)NC1=O [Example 1172] ({CH2CO}-FYD[Phe(2-Me)]L[Bip]V[NMeA][Sar]NLVSCA-NH2; thioether N-14) | 6.02
10 | CC(C)C[C@@H]1NC(=O)[C@H](CCCNC(=N)N)NC(=O)[C@H](Cc2ccccc2)N(C)C(=O)[C@H](C)N(C)C(=O)[C@H](CCCNC(=N)N)NC(=O)[C@H](Cc2ccc(-c3ccccc3)cc2)NC(=O)[C@H](C(C)C)NC(=O)[C@H](Cc2c[nH]c3ccccc23)NC(=O)[C@H](CC(=O)O)NC(=O)[C@H](Cc2ccc(O)cc2)NC(=O)[C@H](Cc2c[nH]c3ccccc23)NC(=O)CSC[C@@H](C(=O)NCC(N)=O)NC(=O)[C@H](CO)NC(=O)[C@H](C(C)C)NC1=O [Example 1157] ({CH2CO}-WYDWV[Bip]R[NMeA][NMeF]RLVSCG-NH2; thioether N-14) | 6.08

Second part, the molecule after the results:

Row | pIC50 | SMILES
11 | 7.10 | CC(C)C[C@@H]1NC(=O)[C@H](CCN)NC(=O)[C@H](Cc2ccccc2)N(C)C(=O)[C@H](C)N(C)C(=O)[C@H](CCCNC(=N)N)NC(=O)[C@H](Cc2ccc(-c3ccccc3)cc2)NC(=O)[C@H](C(C)C)NC(=O)[C@H](Cc2c[nH]c3ccccc23)NC(=O)[C@H](CC(=O)O)NC(=O)[C@H](Cc2ccc(O)cc2)NC(=O)[C@H](Cc2cnc[nH]2)NC(=O)CSC[C@@H](C(=O)N[C@@H](C)C(N)=O)NC(=O)[C@H](CO)NC(=O)[C@H](C(C)C)NC1=O [Example 1316] ({CH2CO}-HYDWV[Bip]R[NMeA][NMeF][Dab]LVSCA-NH2; thioether N-14)
12 | 6.03 | CC(C)C[C@@H]1NC(=O)[C@H](CCCNC(=N)N)NC(=O)[C@H](Cc2ccccc2)N(C)C(=O)[C@@H](C)NC(=O)[C@H](CCCNC(=N)N)NC(=O)[C@H](Cc2ccc(-c3ccccc3)cc2)NC(=O)[C@H](C(C)C)NC(=O)[C@H](Cc2c[nH]c3ccccc23)NC(=O)[C@H](CC(=O)O)NC(=O)[C@H](Cc2ccc(O)cc2)NC(=O)[C@H](CC(N)=O)NC(=O)CSC[C@@H](C(=O)N[C@@H](C)C(N)=O)NC(=O)[C@H]([C@@H](C)O)NC(=O)[C@H](C(C)C)NC1=O [Example 1363] ({CH2CO}-NYDWV[Bip]R[dA][NMeF]RLVTCA-NH2; thioether N-14)
13 | 7.05 | CC(C)C[C@@H]1NC(=O)[C@H](CCCNC(=N)N)NC(=O)[C@H](Cc2ccccc2)N(C)C(=O)[C@H](C)N(C)C(=O)[C@H](CCCN)NC(=O)[C@H](Cc2ccc(-c3ccccc3)cc2)NC(=O)[C@H](C(C)C)NC(=O)[C@H](Cc2c[nH]c3ccccc23)NC(=O)[C@H](CC(=O)O)NC(=O)[C@H](Cc2ccc(O)cc2)NC(=O)[C@H](Cc2cnc[nH]2)NC(=O)CSC[C@@H](C(=O)NCC(N)=O)NC(=O)[C@H](CO)NC(=O)[C@H](C(C)C)NC1=O [Example 1292] ({CH2CO}-HYDWV[Bip][Orn][NMeA][NMeF]RLVSCG-NH2; thioether N-14)
14 | 6.40 | CC(C)C[C@@H]1NC(=O)[C@H](Cc2c[nH]c3ccccc23)NC(=O)[C@H](CC(=O)O)NC(=O)[C@H](Cc2ccc(O)cc2)NC(=O)[C@H](Cc2ccccc2)NC(=O)CSC[C@@H](C(=O)NCC(N)=O)NC(=O)[C@H](CO)NC(=O)[C@H](C(C)C)NC(=O)[C@H](CC(C)C)NC(=O)[C@H](CCCNC(=N)N)NC(=O)CN(C)C(=O)[C@H](C)N(C)C(=O)[C@H](C(C)C)NC(=O)[C@H](Cc2ccc(-c3ccccc3)cc2)NC1=O [Example 1204] ({CH2CO}-FYDWL[Bip]V[NMeA][Sar]RLVSCG-NH2; thioether N-14)
15 | 8.00 | Cc1cccc(C[C@@H]2NC(=O)[C@H](CC(=O)O)NC(=O)[C@H](Cc3ccncc3)NC(=O)[C@H](CN)NC(=O)CSC[C@@H](C(=O)N[C@@H](C)C(N)=O)NC(=O)[C@H]([C@@H](C)O)NC(=O)[C@H](C(C)C)NC(=O)[C@H](CC3CCCCC3)NC(=O)[C@H](CCN)NC(=O)[C@H](Cc3ccccc3)N(C)C(=O)[C@H](CCCN)NC(=O)[C@H](CCC(=O)O)NC(=O)[C@H](Cc3ccc(-c4ccccc4)cc3)NC(=O)C(C(C)C)NC2=O)c1 (stereo partly shown) [Example 1445] ({CH2CO}-[Dap][4Pal]D[Phe(3-Me)][ξV][Bip]E[Orn][NMeF][Dab][Cha]VTCA-NH2; thioether N-14)
16 | 6.59 | COCC[C@@H]1NC(=O)[C@H](C(C)C)NC(=O)[C@H](CC(C)C)NC(=O)[C@H](CCCNC(=N)N)NC(=O)[C@H](Cc2ccccc2)N(C)C(=O)[C@H](C)N(C)C(=O)[C@H](CCCNC(=N)N)NC(=O)[C@H](Cc2ccc(-c3ccccc3)cc2)NC(=O)[C@H](C(C)C)NC(=O)[C@H](Cc2c[nH]c3ccccc23)NC(=O)[C@H](CC(=O)O)NC(=O)[C@H](Cc2ccc(O)cc2)NC(=O)[C@H](Cc2ccccc2)NC(=O)CSC[C@@H](C(=O)NCC(N)=O)NC1=O [Example 1259] ({CH2CO}-FYDWV[Bip]R[NMeA][NMeF]RLV[hSer](Me)CG-NH2; thioether N-14)
